From patent publication US20070105158A1, “Recombined cell system for deorphanizing g protein-coupled receptors” (Deutsches Institut fur Ernahrungsforschung-Stiftun, priority 2003, published 2007)
Where a chain is given by its changes, count along the chain named. “And” between values parts separate entries of the source, which are not always exact repeats. Equal entries are not always repeated. Where two headings read alike, the source gives them in different places.

Experiments:
rho-tag(39)-Olfr49 [1] = target: T1, rho-tag(39)-Olfr49 (Mus musculus, UniProt Q9Z1V0); assay: Odorant-induced Ca2+ influx (FLIPR) in forskolin-pre-treated HeLa-Cx43/CNGA2 cells expressing rho-tag(39)-Olfr49; assay type: cell-based
T1 construct: PCR-amplified the full-length coding regions of mouse Olfr49 (1-C6, NM010991); rho-tag(39): first 39 amino acids of bovine rhodopsin (N); expressed in transfected cells
T1 sequence (Q9Z1V0 1-313): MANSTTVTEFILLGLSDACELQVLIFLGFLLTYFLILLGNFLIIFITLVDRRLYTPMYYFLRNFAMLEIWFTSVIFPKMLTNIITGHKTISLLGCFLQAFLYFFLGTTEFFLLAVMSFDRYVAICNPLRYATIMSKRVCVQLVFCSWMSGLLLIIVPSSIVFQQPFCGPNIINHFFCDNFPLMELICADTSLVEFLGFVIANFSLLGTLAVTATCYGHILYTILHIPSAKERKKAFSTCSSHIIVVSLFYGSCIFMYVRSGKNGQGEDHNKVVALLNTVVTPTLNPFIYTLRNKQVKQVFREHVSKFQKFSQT

mOR267-1 = target: T2, mOR267-1 (Mus musculus, UniProt Q8VBW9); settings: chimera F2 and rho-tag(39)-full length OR, n=3
T2 sequence (Q8VBW9 1-316): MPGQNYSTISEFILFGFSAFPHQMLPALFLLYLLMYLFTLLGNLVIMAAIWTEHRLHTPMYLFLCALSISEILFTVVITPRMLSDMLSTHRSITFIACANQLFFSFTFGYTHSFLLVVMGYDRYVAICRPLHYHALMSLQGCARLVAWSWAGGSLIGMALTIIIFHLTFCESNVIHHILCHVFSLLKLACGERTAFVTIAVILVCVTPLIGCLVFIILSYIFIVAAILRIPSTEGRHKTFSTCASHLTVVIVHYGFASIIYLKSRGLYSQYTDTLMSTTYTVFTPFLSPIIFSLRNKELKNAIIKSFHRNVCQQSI

rho-tag(39)-Olfr49 [2] = target: T1, rho-tag(39)-Olfr49; assay type: cell-based; settings: for Effect of pre-treatment on (−)citronellal-induced cAMP production: (−)citronellal 10 μM, thapsigargin 1 μM
Experimental: After 40 hours, the cells were pre-incubated with IBMX (100 μM, 30 min) and exposed to (−)citronellal or isoproterenol (2 min). The pre-stimulation with forskolin was generally omitted.
The inventors tested the possibility to follow an increase in cGMP by transfecting of the rat particular guanylyl cyclase type B (GC-B) into HeLa-Cx43/CNGA2 cells, for which the C type natriuretic peptide (CNP) is the known agonist (Lucas et al., 2000). […] The quantitative comparison of the relative potencies of the agonists by determining of their EC50 values is a standard method in the GPCR and agonist-classification.

[3] = test system: rho-tag(20)-M4 chimeric mouse ORs; assay type: cell-based; settings: for Responding OR chimeras: 93 OR chimeras
CNGA2 channel = target: T3, CNGA2 channel (Bos taurus, UniProt Q03041); assay: Inhibition of db-cAMP-activated CNGA2-dependent Ca2+ influx into HeLa-Cx43/CNGA2 cells; assay type: cell-based, bovine; settings: for Block of db-cAMP-induced Ca2+ influx by CNGA2: n=2
T3 construct: expressed in transfected cells
T3 sequence (Q03041 1-663): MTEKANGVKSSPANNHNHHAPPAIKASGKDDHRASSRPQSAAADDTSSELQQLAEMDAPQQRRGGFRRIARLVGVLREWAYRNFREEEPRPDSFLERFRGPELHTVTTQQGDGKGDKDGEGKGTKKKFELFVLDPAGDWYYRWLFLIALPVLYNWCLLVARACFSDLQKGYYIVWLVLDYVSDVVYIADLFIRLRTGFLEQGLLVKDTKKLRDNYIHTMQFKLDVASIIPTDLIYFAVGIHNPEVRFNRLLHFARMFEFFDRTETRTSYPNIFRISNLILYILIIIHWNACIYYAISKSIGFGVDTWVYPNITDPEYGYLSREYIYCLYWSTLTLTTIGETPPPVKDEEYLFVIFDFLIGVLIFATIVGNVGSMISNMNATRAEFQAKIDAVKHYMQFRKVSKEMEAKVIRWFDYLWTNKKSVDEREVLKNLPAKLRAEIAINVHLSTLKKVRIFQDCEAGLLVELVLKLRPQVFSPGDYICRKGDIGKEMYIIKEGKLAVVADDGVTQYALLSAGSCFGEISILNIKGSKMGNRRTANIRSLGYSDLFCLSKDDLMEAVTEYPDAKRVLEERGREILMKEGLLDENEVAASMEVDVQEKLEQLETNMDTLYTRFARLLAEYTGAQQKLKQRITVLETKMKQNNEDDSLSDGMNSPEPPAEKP

rho-tag(39)-Olfr43 = target: T4, rho-tag(39)-Olfr43 (Mus musculus, UniProt Q7TRX1)
T4 sequence (Q7TRX1 1-313): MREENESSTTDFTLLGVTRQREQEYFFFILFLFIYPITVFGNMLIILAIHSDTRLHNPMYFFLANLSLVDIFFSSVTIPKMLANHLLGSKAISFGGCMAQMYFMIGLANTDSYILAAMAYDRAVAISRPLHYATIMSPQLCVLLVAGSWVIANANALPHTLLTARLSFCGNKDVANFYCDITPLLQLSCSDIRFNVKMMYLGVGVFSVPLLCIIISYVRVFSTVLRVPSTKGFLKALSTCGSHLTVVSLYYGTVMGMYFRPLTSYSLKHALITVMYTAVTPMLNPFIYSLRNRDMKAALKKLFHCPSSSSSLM
From the text: (§1) In in situ RNA hybridisation-experiments, the inventors examined the gene expression of Olfr41, Olfr43, Olfr49, MOR261-10, MOR267-1, and Ors6 in OSN of the mouse OE.

rho-tag(39)-OR1A1 = target: T5, rho-tag(39)-OR1A1 (Homo sapiens, UniProt Q9P1Q5)
T5 sequence (Q9P1Q5 1-309): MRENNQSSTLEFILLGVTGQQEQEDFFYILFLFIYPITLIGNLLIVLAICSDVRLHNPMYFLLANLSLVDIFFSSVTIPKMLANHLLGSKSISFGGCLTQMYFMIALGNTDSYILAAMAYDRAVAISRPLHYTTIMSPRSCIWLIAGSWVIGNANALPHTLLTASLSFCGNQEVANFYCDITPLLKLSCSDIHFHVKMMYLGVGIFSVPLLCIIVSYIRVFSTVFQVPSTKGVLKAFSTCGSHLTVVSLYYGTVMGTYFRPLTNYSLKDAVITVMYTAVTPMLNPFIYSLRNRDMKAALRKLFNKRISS
From the text: as §1

Olfr43 = target: T6, Olfr43 (Mus musculus, UniProt Q7TRX1); settings: 1 μM, chimera A1 and rho-tag(39)-full length OR, n=3
T6 sequence (Q7TRX1 1-313): T4 sequence (Q7TRX1 1-313)

Olfr49 = target: T7, Olfr49 (Mus musculus, UniProt Q9Z1V0); settings: n=3
T7 sequence (Q9Z1V0 1-313): T1 sequence (Q9Z1V0 1-313)

rho-tag(39)-LOC331758 = target: T8, rho-tag(39)-LOC331758 (Mus musculus, UniProt Q7TRX2)
T8 sequence (Q7TRX2 1-313): T4 sequence (Q7TRX1 1-313) with T10I, G106S, A108G, P306H
From the text: as §1

mOR261-10 = settings: 10 μM, chimera H1 and rho-tag(39)-full length OR, n=3
[4] = target: T9, homomeric olfactory CNGA2 channel (Rattus norvegicus, UniProt Q00195); settings: Finn et al., 1998; cited from earlier work
T9 construct: host or cells: HEK293 (in the cited work)
T9 sequence (Q00195 1-664): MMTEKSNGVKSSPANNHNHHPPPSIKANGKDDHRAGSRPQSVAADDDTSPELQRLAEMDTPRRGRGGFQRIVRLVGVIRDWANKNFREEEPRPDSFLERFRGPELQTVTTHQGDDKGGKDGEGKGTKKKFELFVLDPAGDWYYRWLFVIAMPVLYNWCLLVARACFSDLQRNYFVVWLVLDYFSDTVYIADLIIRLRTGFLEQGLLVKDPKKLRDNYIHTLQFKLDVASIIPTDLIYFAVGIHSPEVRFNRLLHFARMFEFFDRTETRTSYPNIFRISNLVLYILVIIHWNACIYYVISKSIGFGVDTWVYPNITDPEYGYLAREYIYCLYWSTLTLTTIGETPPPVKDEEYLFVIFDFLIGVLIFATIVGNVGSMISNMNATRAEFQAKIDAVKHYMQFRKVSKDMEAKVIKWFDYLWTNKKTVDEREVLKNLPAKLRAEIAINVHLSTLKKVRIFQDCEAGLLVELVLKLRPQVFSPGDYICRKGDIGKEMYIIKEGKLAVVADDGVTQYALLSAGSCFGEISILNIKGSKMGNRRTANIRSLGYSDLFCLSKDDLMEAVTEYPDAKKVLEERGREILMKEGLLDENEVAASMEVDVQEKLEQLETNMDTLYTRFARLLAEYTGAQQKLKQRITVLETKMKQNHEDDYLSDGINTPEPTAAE

rho-tag(39)-Olfr41 = assay type: cell-based, mouse; settings: 10 μM, thapsigargin pre-treated cells
rho-tag(39)-Ors6 = assay type: cell-based, mouse; settings: 10 μM, thapsigargin pre-treated cells
[5] = EC50 for odorant-induced Ca2+ influx, stably expressed rho-tag(39)-Olfr49, forskolin-pre-treated

Structure (SMILES): CC(C)=CCCC(C)CC=O (single isomer, unassigned; (+)) [(+)citronellal]
- EC50 (rho-tag(39)-Olfr49 [1]; [5]): 2.6 ± 0.4 µM

Structure (SMILES): CC(C)=CCCC(C)CC=O (single isomer, unassigned; (-)) [(−)citronellal]
- Response in single cell Ca2+ imaging (mOR267-1; 1 μM): selectively responded
- EC50 (rho-tag(39)-Olfr49 [2]; EC50 for (−)citronellal-induced cAMP production, rho-tag(39)-Olfr49 stable cell line, n=2): 0.4 µM and 0.49 µM
- Responding OR chimeras ([3]; odorant 1 μM): 3%
- Responding OR chimeras ([3]; odorant 3 μM): 43%
- Percentage of responding ORs ([3]; subgroup of 67 OR chimeras, odorant 1 μM, n=1): 9%
- IC50 (CNGA2 channel; IC50 for block of db-cAMP-induced Ca2+ influx by CNGA2, db-cAMP-pre-treated HeLa-Cx43/CNGA2 cells, FLIPR): 108 µM and 132 µM
- EC50 (rho-tag(39)-Olfr43): 2.1 ± 0.2 µM
- EC50 (rho-tag(39)-Olfr49 [1]; EC50 for (−)citronellal-induced Ca2+ influx, transiently transfected rho-tag(39)-Olfr49, forskolin-pre-treated): 3.9 µM and 4 µM
- EC50 (rho-tag(39)-Olfr49 [1]; [5]): 2.1 µM
- EC50 (rho-tag(39)-OR1A1): 2.2 ± 0.4 µM
- Response in single cell Ca2+ imaging (Olfr43): selectively responded
- Response in single cell Ca2+ imaging (Olfr49; 1 μM): selectively responded
- EC50 (rho-tag(39)-LOC331758): 3.2 ± 0.8 µM

Structure (SMILES): CC(C)=CCCC(C)CCO (stereo not drawn) [beta-citronellol]
- Response in single cell Ca2+ imaging (mOR267-1; 10 μM): selectively responded
- Responding OR chimeras ([3]; odorant 10 μM): 22%
- Block of db-cAMP-induced Ca2+ influx by CNGA2 (CNGA2 channel; at up to 3 mM): did not block
- Response in single cell Ca2+ imaging (mOR261-10): selectively responded
- EC50 (rho-tag(39)-Olfr49 [1]; [5]): 32.8 ± 2.7 µM
- Response in single cell Ca2+ imaging (Olfr49; 10 μM): selectively responded

Structure (SMILES): Nc1nc2c(ncn2[C@@H]2O[C@@H]3COP(=O)(O)O[C@H]3[C@H]2O)c(=O)[nH]1 [cGMP]
- EC50 [4]: 3 µM
- EC50 for cGMP lower than the one for cAMP [4]: 20 fold

Structure (SMILES): CC(C)=CCCC(C)CC(=O)O (centres unmarked) [citronellic acid]
- Response of the 93 OR chimeras ([3]; up to 10 μM, n=2): None of the 93 OR chimeras responded
- Block of db-cAMP-induced Ca2+ influx by CNGA2 (CNGA2 channel; at up to 300 μM): did not block

Structure (SMILES): CCCCCCC=O [heptanal]
- Block of db-cAMP-induced Ca2+ influx by CNGA2 (CNGA2 channel; at up to 100 μM): did not block
- EC50 (rho-tag(39)-Olfr49 [1]; stably expressed rho-tag(39)-Olfr49, forskolin-pre-treated, read-out: EC50 for odorant-induced Ca2+ influx): 6 ± 1 µM
- Ca2+ influx (rho-tag(39)-Olfr41): triggered the Ca2+ influx

Structure (SMILES): O=C(O)CCCCCCCC(=O)O [nonandione acid]
- Ca2+ influx (rho-tag(39)-Ors6): induced a Ca2+ influx

Structure (SMILES): CCCCCCCC=O [octanal]
- Block of db-cAMP-induced Ca2+ influx by CNGA2 (CNGA2 channel; at up to 100 μM): did not block
- EC50 (rho-tag(39)-Olfr49 [1]; [5]): 3.7 ± 0.1 µM

Structure (SMILES): C/C=C(/C)C(=O)O[C@H]1C(C)=C2[C@H]([C@@H]1OC(=O)CCCCCCC)[C@@](C)(OC(C)=O)C[C@H](OC(=O)CCC)[C@@]1(O)[C@H]2OC(=O)[C@@]1(C)O [thapsigargin]
- Effect of pre-treatment on (−)citronellal-induced cAMP production (rho-tag(39)-Olfr49 [2]; cells transfected with hG-alpha-olf): reduced
- Effect of pre-treatment on (−)citronellal-induced cAMP production (rho-tag(39)-Olfr49 [2]; cells without hG-alpha-olf, compared to cells without pre-treatment, forskolin 2.5 μM): significantly increased
